Patent US6645996B1, “Physiologically active substances” (Mercian Corporation and Eisai Co., Ltd., priority 1998, dated 2003)

Columns and labels:
[1] = system: Endothelial cells derived from human umbilical vein (HUVEC); assay: Inhibitory effect of growth of endothelial cells (MTT method); format: cell-based; conditions: three days
Protocol: Endothelial cells derived from human umbilical vein (HUVEC; manufactured by Sanko Junyaku) incubated in an EGM medium (manufactured by Sanko Junyaku) were adjusted to 1×10^4 cells/ml and each 100 μl were separately placed on a 96-well plate. After incubating overnight, 100 μl of medium containing sample were added thereto followed by incubating for three days. The cell numbers at that time were measured by MTT method. That is, 50 μl of PBS solution containing 0.33% of 3-(4,5-dimethylthiazol-2-yl)-2,5-diphenyltetrazolium bromide (MTT) was added thereto and incubation was continued for further 3-4 hours. After the supernatant liquid of the culture was removed, 100 μl of DMSO was added to dissolve a formazane which was formed in the cells and the absorbance at the wave length of 460 nm was measured by use of plate reader. The IC50 value is defined as a concentration that the absorbance was 50% of that observed when no sample was added.

[2] = system: mouse colon cancer (Colon 38-OT-7); assay: Anti-metastatic effect: hepatic metastasis of mouse colon cancer transplanted to caecum; format: in vivo; conditions: for Toxic death: n 8
Protocol: The mouse colon cancer (Colon 38-OT-7) having a high incidence of the hepatic metastasis was transplanted to the mouse caecum. Then VD1207C was administered intraperitoneallyat each dose of 0.5, 1.0 and 2.0 mg/kg once a day since 12 days after the transplantation.

[3] = system: angiogenesis induced by human colorectal cancer (WiDr cells); assay: Antiangiogenic effect in vivo: chamber with WiDr cells transplanted to mouse, 51Cr-labeled erythrocytes; conditions: 1 mg/kg intraperitoneally once a day for 4 days
Protocol: Whether angiogenesis induced by human colorectal cancer (WiDr cells) was inhibited by administering VD1207C or not was studied to examine the antiangiogenic effect of VD1207C in vivo.
A chamber in which the WiDr cells were sealed was transplanted to a mouse. Then VD1207C was administered intraperitoneally at each dose of 0.5, 1.0 and 2.0 mg/kg for 4 days once a day. The amount of angiogenesis induced by the tumor was measured quantitatively by measuring the radiao activity in the skin touching with the chamber as the amount of blood by statically injecting erythrocytes labeled by ^51Cr. In FIG. 1, vascular volume generated at each dose of VD1207C is shown.

[4] = Safety of VD1207 analogues, intraperitoneal administration over 4 days; format: in vivo; parameters: key to Blood (WBC) / Blood (PLAT) / Biochemistry (UN) / Biochemistry (GPT) / Weight (liver) / Weight (kidney) / Weight (lung) / Weight (spleen) / Body weight / Blood (RBC): —: “-” indicates no abnormality; “↑” and “↓” indicate an increase and a decrease, respectively; “↑” and “↓” indicate an increase and a decrease, respectively
Protocol: Each of VD1207B, C, D, E, F and G2 was continuously administered intraperitoneally at each dose of 1 mg/kg and 2 mg/kg over 4 days to examine the safety of VD1207 analogues.

aorta pieces of rat = assay: Inhibition of capillary formation in rat aorta model (aorta pieces cultured in collagen gel); format: cell-based; conditions: 7th day from addition of sample
Protocol: In a method of screening the antiangiogenic effect, the degree of inhibition to the formation of lumens observed when an aortic fragment of a rat is cultured in a collagen gel was selected as an indicator (Nicosia R. F., Lab. Invest., 63, 115, 1990). Also, for the purpose of analyzing the mechanism of action of the antiangiogenic effect of the resulting compound, measurements were made concerning the effect of inhibiting the growth of endothelial cells by using endothelial cells derived from the human umbilical cord vein and the effect of inhibiting the expression of an adhesion molecules on endothelial cells.
The antiangiogenic potency was evaluated by the inhibition of capillary formation in rat aorta model in which aorta pieces of rat were cultured in collagen gel. That is, the aorta excised from male rat of Sprague-Dawley strain (8-12 weeks age) was washed with a Hanks' solution so that fat tissues around there were removed minutely. The aorta was incised to prepare pieces of 2 mm square and they were allowed to stand in a 24-well plate holding the endothelial cells upside. Then, 500 μl of neutralized Type I collagen (Cell Matrix Type I-A; manufactured by Nitta Gelatin) were poured over each well and allowed to stand at room temperature for about 20 minutes in a clean bench to solidify the gel. After gelling, 500 μl of MCDB 131 medium (manufactured by Chlorella Kogyo) were added thereto followed by incubating in a Co2 incubator (5% CO2) at 37° C. On the next day, the culture medium was exchanged with 500 μl of MCDB 131 medium containing the sample and the incubation was continued. And, at the stage of the 7th day from the addition of the sample, numbers of capillaries formed around the aorta were counted. The IC50 value of each sample is defined as a concentration that the number of blood capillaries is 50% of that observed when no sample was added.

[5] = Solubility (analysis data); format: physicochemical
E-selectin = assay: Inhibition of TNFα-induced expression of adhesion molecule E-selectin on endothelial cells; format: cell-based, human; conditions: HUVEC, TNFα 1 ng/ml, 4 hours
Protocol: (§1) Endothelial cells derived from human umbilical vein (HUVEC) were cultured on a 96-well plate until they were fallen in a confluent state. The culture broth was removed. After 150 μl of a new culture broth was added to each well, 20 μl of a sample solution was added thereto. After 15 minutes, 30 μl of TNFα was added such that the final concentration became 1 ng/ml and it was incubated at 37° C. for 4 hours in a 5% CO2 incubator. Next, the culture broth was removed and the cells were washed twice with a phosphate buffer (PBS). Further, a PBS solution containing 0.025% glutaraldehyde was added and the well was allowed to stand at room temperature for 6 minutes to fix the cells. After the cells were immobilized, they were washed twice with 200 μl of phosphate buffer (PBSA) containing 0.25% BSA. Thereafter 100 μl of a PBSA solution containing 1 μg/ml of mouse anti-human VCAM-1 (R&D systems) or a mouse anti-human E-selectin antibody (R&D systems) was added to each well. The well was allowed to stand at room temperature for 30 minutes and then the cells were again washed. A PBSA solution containing 100 μl of peroxidase-conjugated goat anti-mouse antibody (Cosmo Bio Co., Ltd.) was added to the well. Then the well was allowed to stand at room temperature for 30 minutes and thereafter the cells were washed. In succession, 100 μl of 3,3*,5,5*-tetramethylbenzyidine (TMB) substrate solution was added to develop a color. Next, the coloring was stopped by 100 μl of 1M phosphoric acid to measure the absorbance at 450 nm.

VCAM-1 = assay: Inhibition of TNFα-induced expression of adhesion molecule VCAM-1 on endothelial cells; format: cell-based, human; conditions: HUVEC, TNFα 1 ng/ml, 4 hours
Protocol: as §1

collagen arthritis model = conditions: Peacock D J., J. Exp. Med. 175, 1135-8, 1992; cited from earlier work
[6] = 1 mg/kg i.p. 4 days, listed as C
[7] = 2 mg/kg i.p. 4 days, listed as C
[8] = 1 mg/kg i.p. 4 days, listed as B
[9] = 2 mg/kg i.p. 4 days, listed as B

SMILES: CCCC(C(=O)c1cc(C(OC)C(C)C)c(O)c(C=O)c1O)C1CC(O)C2(OC2CC)C(O)O1 (single isomer, unassigned) [VD1207 C]
- IC50 (growth of endothelial cells, absorbance 50% of no sample) ([1]; listed as C): 0.08 µg/mL
- Hepatic metastasis incidence ([2]; 0.5 mg/kg i.p. once a day): 5/7
- No. of metastatic nodules (mean ± STD) ([2]; 0.5 mg/kg i.p. once a day): (9.7 ± 12.2)
- No. of metastatic nodules, median ([2]; 0.5 mg/kg i.p. once a day): 1.0
- Toxic death ([2]; 0.5 mg/kg i.p. once a day): 1
- Hepatic metastasis incidence ([2]; 1.0 mg/kg i.p. once a day): 3/6
- No. of metastatic nodules (mean ± STD) ([2]; 1.0 mg/kg i.p. once a day): (1.2 ± 1.6)
- No. of metastatic nodules, median ([2]; 1.0 mg/kg i.p. once a day): 0.5
- Toxic death ([2]; 1.0 mg/kg i.p. once a day): 2
- Hepatic metastasis incidence ([2]; 2.0 mg/kg i.p. once a day): 0/5
- No. of metastatic nodules (individual animals) ([2]; 2.0 mg/kg i.p. once a day): no metastatic nodules was observed at all
- No. of metastatic nodules, median ([2]; 2.0 mg/kg i.p. once a day): 0
- Toxic death ([2]; 2.0 mg/kg i.p. once a day): 3
- Number of the metastatic nodules ([2]; dose ranging from 0.5 mg/kg): decreased the number of the metastatic nodules
- Angiogenesis induced by WiDr cells (vascular volume) [3]: inhibited with a significant difference
- Weight of each of the liver, kidney and lung (autoptic findings) ([4]; 1 mg/kg and 2 mg/kg i.p. 4 days): increase
- Biochemistry (GPT) ([4]; 1 mg/kg i.p. 4 days): —
- Biochemistry (UN) ([4]; 1 mg/kg i.p. 4 days): —
- Blood (PLAT) ([4]; 1 mg/kg i.p. 4 days): —
- Blood (RBC) ([4]; 1 mg/kg i.p. 4 days): —
- Blood (WBC) ([4]; 1 mg/kg i.p. 4 days): —
- Body weight ([4]; 1 mg/kg i.p. 4 days): —
- Change in weight (FIGS. 2a and 2b) ([4]; 1 mg/kg i.p. 4 days): inhibition to an increase in weight
- Weight (liver) ([4]; 1 mg/kg i.p. 4 days): ↑
- Weight (spleen) ([4]; 1 mg/kg i.p. 4 days): —
- Weight (kidney) [4, 6]: ↑
- Weight (lung) [4, 6]: ↑
- Change in weight (FIGS. 2a and 2b) ([4]; 2 mg/kg i.p. 4 days): reduction in weight
- Blood (PLAT) [4, 7]: ↓
- Body weight [4, 7]: ↓
- Weight (kidney) [4, 7]: ↑
- Weight (lung) [4, 7]: ↑
- IC50 (number of blood capillaries 50% of that without sample) (aorta pieces of rat; listed as C): 0.050 µg/mL
- Solubility in ethyl acetate, chloroform and dimethyl sulfoxide [5]: soluble
- Solubility in neutral water [5]: insoluble
- E-select (IC50 of expression) (E-selectin; listed as C): 1.23 µg/mL
- VCAM-1 (IC50 of expression) (VCAM-1; listed as C): 0.85 µg/mL

SMILES: CCCC(C(=O)c1cc(C(OC)C(C)C)c(O)c(C=O)c1O)C1CC(O)C2(OC2CC)C(O)O1 (single isomer, unassigned) [VD1207 B]
- IC50 (growth of endothelial cells, absorbance 50% of no sample) ([1]; listed as B): 0.24 µg/mL
- Biochemistry (GPT) ([4]; 1 mg/kg i.p. 4 days): —
- Biochemistry (UN) ([4]; 1 mg/kg i.p. 4 days): —
- Blood (PLAT) ([4]; 1 mg/kg i.p. 4 days): —
- Blood (RBC) ([4]; 1 mg/kg i.p. 4 days): —
- Blood (WBC) ([4]; 1 mg/kg i.p. 4 days): —
- Body weight ([4]; 1 mg/kg i.p. 4 days): —
- Weight (liver) ([4]; 1 mg/kg i.p. 4 days): ↑
- Weight (spleen) ([4]; 1 mg/kg i.p. 4 days): —
- Weight (kidney) [4, 8]: —
- Weight (lung) [4, 8]: —
- Biochemistry (GPT) ([4]; 2 mg/kg i.p. 4 days): —
- Biochemistry (UN) ([4]; 2 mg/kg i.p. 4 days): —
- Blood (RBC) ([4]; 2 mg/kg i.p. 4 days): —
- Blood (WBC) ([4]; 2 mg/kg i.p. 4 days): —
- Weight (liver) ([4]; 2 mg/kg i.p. 4 days): ↑
- Weight (spleen) ([4]; 2 mg/kg i.p. 4 days): —
- Blood (PLAT) [4, 9]: —
- Body weight [4, 9]: —
- Weight (kidney) [4, 9]: —
- Weight (lung) [4, 9]: —
- IC50 (number of blood capillaries 50% of that without sample) (aorta pieces of rat; listed as B): 0.053 µg/mL
- Solubility in ethyl acetate, chloroform and dimethyl sulfoxide [5]: soluble
- Solubility in neutral water [5]: insoluble
- E-select (IC50 of expression) (E-selectin): 4.0 µg/mL
- VCAM-1 (IC50 of expression) (VCAM-1): 2.48 µg/mL

SMILES: CCCC(C(=O)c1cc(CC(C)C)c(O)c(C=O)c1O)C1CC(O)C2(OC2CC)C(O)O1 (stereo not drawn) [VD1207 D]
- IC50 (growth of endothelial cells, absorbance 50% of no sample) [1]: 0.18 µg/mL
- Biochemistry (GPT) ([4]; 1 mg/kg i.p. 4 days): —
- Biochemistry (UN) ([4]; 1 mg/kg i.p. 4 days): —
- Blood (PLAT) ([4]; 1 mg/kg i.p. 4 days): —
- Blood (RBC) ([4]; 1 mg/kg i.p. 4 days): —
- Blood (WBC) ([4]; 1 mg/kg i.p. 4 days): —
- Body weight ([4]; 1 mg/kg i.p. 4 days): —
- Weight (kidney) ([4]; 1 mg/kg i.p. 4 days): —
- Weight (liver) ([4]; 1 mg/kg i.p. 4 days): ↑
- Weight (lung) ([4]; 1 mg/kg i.p. 4 days): —
- Weight (spleen) ([4]; 1 mg/kg i.p. 4 days): —
- Biochemistry (GPT) ([4]; 2 mg/kg i.p. 4 days): —
- Biochemistry (UN) ([4]; 2 mg/kg i.p. 4 days): —
- Blood (PLAT) ([4]; 2 mg/kg i.p. 4 days): —
- Blood (RBC) ([4]; 2 mg/kg i.p. 4 days): —
- Blood (WBC) ([4]; 2 mg/kg i.p. 4 days): —
- Body weight ([4]; 2 mg/kg i.p. 4 days): —
- Weight (kidney) ([4]; 2 mg/kg i.p. 4 days): —
- Weight (liver) ([4]; 2 mg/kg i.p. 4 days): ↑
- Weight (lung) ([4]; 2 mg/kg i.p. 4 days): —
- Weight (spleen) ([4]; 2 mg/kg i.p. 4 days): —
- IC50 (number of blood capillaries 50% of that without sample) (aorta pieces of rat): 0.019 µg/mL
- Solubility in ethyl acetate, chloroform and dimethyl sulfoxide [5]: soluble
- Solubility in neutral water [5]: insoluble
- E-select (IC50 of expression) (E-selectin): 1.40 µg/mL
- VCAM-1 (IC50 of expression) (VCAM-1): 1.11 µg/mL

SMILES: CO[C@@H]1[C@H](OC(=O)NC(=O)CCl)CC[C@]2(CO2)[C@H]1[C@@]1(C)O[C@@H]1CC=C(C)C [AGM-470]
- Arthritis in a collagen arthritis model (collagen arthritis model): inhibits arthritis
